Source: patent US20170305894A1, “PPAR AGONISTS, COMPOUNDS, PHARMACEUTICAL COMPOSITIONS, AND METHODS OF USE THEREOF” (priority 2014, published 2017)

How the values were obtained:
FGF1a promoter = assay: Luciferase reporter assay of FGF1a promoter co-transfected with PPARδ; type: cell-based; conditions: with or without the ligand
Excerpt: FIGS. 3A-3G illustrate that PPARδ regulates FGF1a to promote micro-vascularization. *P<0.05; **P<0.01. All error bars are SEM. FIG. 3A provides immunofluorescence staining for CD31 on transverse sections of uninjured TA from WT and TG animals. FIG. 3B provides quantification of CD31 positive capillary number (n=4). FIG. 3C illustrates the FGF1a mRNA level in TA of WT and TG by QPCR (n=5). FIG. 3D provides a Western blot for FGF1. FIG. 3E provides immunofluorescence staining for CD31 positive capillaries on transverse sections of TA, 5 days after the injury (n=3). FIG. 3F provides quantification for CD31 positive capillaries on transverse sections of TA, 5 days after the injury (n=3). FIG. 3G provides luciferase reporter assays of FGF1a promoter co-transfected with PPARδ with or without the ligand, GW501516.
Increased vasculature is one of the hallmarks of oxidative myofibers, which facilitates introduction of immune cells and also supports increased number of satellite cells. TG animals show increased expression of FGF1 in TA muscle (FIG. 3D). Upon injury, TG animals maintain high expression of FGF1 expression (FIG. 3D). […] Furthermore, after the injury, TG animals show increased expression of CD31, which is indicative of increased vascularity (FIGS. 3E-F). […] Therefore, increased vascularity may contribute to the accelerated regenerative process observed in VP16-PPARδ animals.

[1] = system: C57BL6J mice, thermal injury to the TA; assay: Acute pharmacological activation of PPARδ in freeze burn (thermal) injury of the TA muscle; type: in vivo
Description: TA muscles were injured according to previously published methods with a few modifications (Brack et al., Science 317(5839):807-810 (2007)). A stainless steel 1 g weight (Mettler-Toledo) equilibrated to the temperature of dry ice was placed directly on the exposed TA for 10 seconds. Following the thermal injury, incision was closed using VetBond (3M). All injury procedures were performed on the left leg, and the right leg was used as control.
(Hamer et al., J Anat 200(Pt 1):69-79 (2002)). Sterile 1% w/v Evans Blue dye in PBS was intraperitoneally injected at 1% volume relative to the body mass of an animal. Seven hours after the injection, injured TA muscles were harvested and snap-frozen by isopentane quenching in liquid nitrogen. Frozen sections were cut in 10 μm thickness, fixed in ice-cold acetone, dipped in xylene and mounted with DPX. Proportion of the stained area over the total area was measured using ImageJ software.
50 mg/kg body weight of BrdU (Sigma) was injected intraperitoneally as solution of 10 mg/mL BrdU in saline. TA muscles were harvested at 7 days after injury and processed for paraffin sections as described above. BrdU incorporation was visualized using the BrdU Labeling and Detection Kit I (Roche) and BrdU+ nuclei were counted and represented as a proportion of total nuclei in a field.
Whole or partial tissues were homogenized by Polytron probe homogenizer in Trizol reagent (Invitrogen). Total RNA was extracted from the homogenates according to the manufacturer's protocol. One microgram of DNase-treated total RNA was reverse transcribed using Superscript II Reverse Transcriptase (Invitrogen) according to the manufacturer's instructions. cDNAs were diluted 1/40 with ddH2O and used as templates in RT-QPCR reactions with SYBRGreenER qPCR SuperMix detection system (Invitrogen). Samples were prepared in technical triplicates and relative mRNA levels were calculated by using the standard curve methodology and normalized against GAPDH mRNA levels in the same samples.

Cc1cc(SCc2sc(-c3ccc(C(F)(F)F)cc3)nc2C)ccc1OCC(=O)O [GW501516]
FGF1a promoter luciferase reporter activity (FGF1a promoter): induction of FGF1a
initial inflammatory responses (inflammatory marker genes) ([1]; 12 hours after the injury, with or without ligand): similarly generated
expressions of inflammatory marker genes by QPCR ([1]; 3 days after the injury): significantly reduced
reduction in the proportion of stained area ([1]; 5 days after the injury, versus vehicle, orally 5 mg/kg): 34.7%
expression of PPARδ target genes (PDK4, CPT1b, and catalase) in TA by QPCR ([1]; 9 day treatment, orally 5 mg/kg): Up-regulation
myoblast proliferation (BrdU positive nuclei) ([1]; BrdU injection at 48 hours after the injury): promoted myoblast proliferation
increase in the number of quiescent satellite cells ([1]; after 9 days or 4 weeks of ligand treatment): not observed
Evans Blue dye uptake, proportion of muscle cross sectional area (CSA) stained ([1]; orally 5 mg/kg for 4 days prior to and 5 days after injury, 5 days after the injury, vehicle 7.6%): 4.9%
